Experimental data as given in patent US9441237B2, “Auxin receptors” (THE GOVERNORS OF THE UNIVERSITY OF ALBERTA, priority 2010, dated 2016).

Key:
[1] = test system: PsAFB6 transcript abundance in pericarp; experiment: Pea split-pericarp assay, hormone applied to deseeded pericarps, PsAFB6 transcript abundance by qRT-PCR; type: in vivo, Pisum sativum; conditions: deseeded 2 DAA pericarps, 50 μM hormone
Experimental: (§1) To examine the hormonal regulation of pericarp AFB mRNA levels, the pea split-pericarp assay was used (Ozga et al., 1992). Fruit at 2 DAA were split along the dorsal suture. Seeds were removed and pericarps were left for 12 hours prior to hormone application to reduce residual seed effects. […] For split-pod, no seed controls (SPNS), 30 μL of 0.1% aqueous Tween 80 was applied. For split-pod controls (SP), seeds were not removed after the dorsal suture was opened, but 30 μL of 0.1% aqueous Tween 80 was applied 12 hours after pericarp splitting. As a further control for the split-pericarp procedure, intact pods were also harvested at the appropriate times. All fruit subjected to split-pericarp treatments were covered with plastic to maintain humidity, and all manipulations were carried out while pericarps remained on the plant. Intact controls were harvested at the 0 hour and 12 hour treatment timing, while all split-pericarp treatments were harvested at 12, 14, 20, and 24 hours after pericarp splitting (0, 2, 8, and 12 hours after hormone treatment).
(§2) All transcript quantification was performed on a StepOnePlus sequence detector (Applied Biosystems). Reverse transcription and quantification was performed using TaqMan One-Step RT-PCR Master Mix (Applied Biosystems; final concentration 1×) and 200 ng of DNAse treated total RNA (final concentration 8 ng μL^−1) in duplicate in a final volume of 25 μL per well. The final concentration of forward and reverse primers was 300 nM each, and the final concentration of probe was 100 nM. Reverse transcription was carried out for 30 minutes at 48° C. DNA polymerase antibody was denatured at 95° C. for 10 minutes. Quantification was carried out for 40 cycles of the following program: denaturation at 95° C. for 15 seconds, primer annealing and extension at 60° C. for 1 minute. Probes were labelled at the 5′ end with FAM (6-carboxyfluorescein) and at the 3′ end with the MGB quencher (Applied Biosystems).
(§3) Relative transcript levels were calculated using the ΔCt method (Livak and Schmittgen, 2001) using the following formula, where X is an arbitrary value equal to or greater than the highest assayed Ct value and E is the reaction efficiency for the amplicon in question: Transcript abundance=(1+E)^X−Ct) (1)

[2] = test system: deseeded pea pericarps; experiment: Deseeded pea pericarp growth / fruit abortion after hormone application (split-pericarp); type: in vivo, Pisum sativum; conditions: hormone applied to deseeded ovaries
[3] = test system: PsAFB2 transcript abundance in pericarp; experiment: Pea split-pericarp assay, hormone applied to deseeded pericarps, PsAFB2 transcript abundance by qRT-PCR; type: in vivo, Pisum sativum; conditions: deseeded 2 DAA pericarps, 50 μM hormone applied 12 h after deseeding, 2, 8 and 12 h after application
Experimental: as §1
as §2, with “DNA polymerase antibody was denatured at 95° C. for 10 minutes.” left out, “Probes were labelled at the 5′ end with FAM (6-carboxyfluorescein) and at the 3′ end with the MGB quencher (Applied Biosystems).” left out
as §3

[4] = test system: deseeded pea pericarps; conditions: hormone applied to deseeded pericarps, split-pericarp assay; literature (Reinecke et al. 1995, 1999; Ozga and Reinecke 1999; Johnstone et al. 2005); cited from earlier work
[5] = throughout the time course (2 to 12 h after application)

| Compound | effect on pericarp PsAFB6 mRNA abundance ([1]; 2 hours after application) | effect on pericarp PsAFB6 mRNA abundance [1, 5] | abortion of deseeded fruits [2] | effect on steady-state PsAFB2 transcript abundance [3] | deseeded pericarp growth [4] | effect on pericarp PsAFB6 mRNA abundance ([1]; 8 hours to 12 hours after application) |
| --- | --- | --- | --- | --- | --- | --- |
| O=C(O)Cc1c[nH]c2cccc(Cl)c12 [4-Cl-IAA, 4-chloroindole-3-acetic acid] | initially reduced | reduced PsAFB6 mRNA abundance to levels similar to those found in SP controls | prevention of fruit abortion | did not significantly affect | stimulated pericarp growth |  |
| Cc1cccc2[nH]cc(CC(=O)O)c12 [4-Me-IAA] |  |  |  |  | capable of stimulating the expansion of deseeded pericarps, but not to the same extent as 4-Cl-IAA |  |
| C=C1C[C@]23C[C@@]1(O)CC[C@H]2[C@@]12CC[C@H](O)[C@@](C)(C(=O)O1)[C@H]2[C@@H]3C(=O)O [GA1] |  |  |  |  | stimulate deseeded pericarp growth |  |
| C=C1C[C@]23C[C@@]1(O)CC[C@H]2[C@@]12C=C[C@H](O)[C@@](C)(C(=O)O1)[C@H]2[C@@H]3C(=O)O [GA3] |  | no effect |  | did not significantly affect | stimulate deseeded pericarp growth |  |
| O=C(O)Cc1c[nH]c2ccccc12 [IAA, indole-3-acetic acid] |  |  | nor does it prevent the abortion of deseeded fruits | did not significantly affect | further decreases growth | increased to that observed in the SPNS pericarps |
